Measured values taken from ChEMBL document CHEMBL1201862, “PubChem BioAssay data set” (2004).
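96-well plates; 48 h exposure; 5 concentrations. Endpoints by linear interpolation between flanking doses. Not reached: highest tested concentration assigned. Abbreviation: GI50, concentration required for 50% inhibition of growth.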 Calls of active or inactive are those of the source. Rule as the data show it: active = GI50 up to about 1.1 µM and inactive = higher.

What was measured:
Test in all cases: DTP human tumour cell line panel, 48 h
M14 = test system: M14
TK-10 = test system: TK-10
UO-31 = test system: UO-31
MDA-MB-231 = test system: MDA-MB-231
EKVX = test system: EKVX
RXF 393 = test system: RXF 393
HCC 2998 = test system: HCC 2998
NCI/ADR-RES = test system: NCI/ADR-RES
HCT-15 = test system: HCT-15
LOX IMVI = test system: LOX IMVI
HCT-116 = test system: HCT-116
SF-268 = test system: SF-268
786-0 = test system: 786-0
Malme-3M = test system: Malme-3M
U-251 = test system: U-251
SNB-19 = test system: SNB-19
OVCAR-4 = test system: OVCAR-4
SNB-75 = test system: SNB-75
K562 = test system: K562
MCF7 = test system: MCF7
OVCAR-5 = test system: OVCAR-5
NCI-H23 = test system: NCI-H23
SF-539 = test system: SF-539
RPMI-8226 = test system: RPMI-8226
SF-295 = test system: SF-295
NCI-H460 = test system: NCI-H460
SN12C = test system: SN12C
HL-60 = test system: HL-60
UACC-62 = test system: UACC-62
MDA-MB-435 = test system: MDA-MB-435
HOP-92 = test system: HOP-92
SW-620 = test system: SW-620
CAKI-1 = test system: CAKI-1
SK-MEL-28 = test system: SK-MEL-28
NCI-H522 = test system: NCI-H522
SK-MEL-5 = test system: SK-MEL-5
PC-3 = test system: PC-3
KM12 = test system: KM12
SR = test system: SR
UACC-257 = test system: UACC-257
Hs-578T = test system: Hs-578T
SK-MEL-2 = test system: SK-MEL-2
IGROV-1 = test system: IGROV-1
SK-OV-3 = test system: SK-OV-3
MOLT-4 = test system: MOLT-4
A549 = test system: A549
CCRF-CEM = test system: CCRF-CEM
NCI-H226 = test system: NCI-H226
A498 = test system: A498
T47D = test system: T47D
BT-549 = test system: BT-549
COLO 205 = test system: COLO 205
DU-145 = test system: DU-145
MDA-N = test system: MDA-N
OVCAR-3 = test system: OVCAR-3
OVCAR-8 = test system: OVCAR-8
ACHN = test system: ACHN
HOP-62 = test system: HOP-62
HT-29 = test system: HT-29
DMS-114 = test system: DMS-114
SNB-78 = test system: SNB-78

C[C@H](CCC(=O)NCCS(=O)(=O)O)[C@H]1CC[C@H]2[C@@H]3CC[C@@H]4C[C@H](O)CC[C@]4(C)[C@H]3CC[C@]12C
GI50 (M14): > 100 µM (inactive) | GI50 (TK-10): > 100 µM (inactive) | GI50 (UO-31): > 100 µM (inactive) | GI50 (MDA-MB-231): > 100 µM (inactive) | GI50 (EKVX): > 100 µM (inactive) | GI50 (RXF 393): > 100 µM (inactive) | GI50 (HCC 2998): > 100 µM (inactive) | GI50 (NCI/ADR-RES): > 100 µM (inactive) | GI50 (HCT-15): > 100 µM | GI50 (LOX IMVI): > 100 µM (inactive) | GI50 (HCT-116): > 100 µM (inactive) | GI50 (SF-268): > 100 µM (inactive) | GI50 (786-0): > 100 µM (inactive) | GI50 (Malme-3M): > 100 µM (inactive) | GI50 (U-251): > 100 µM (inactive) | GI50 (SNB-19): > 100 µM (inactive) | GI50 (OVCAR-4): > 100 µM (inactive) | GI50 (SNB-75): > 100 µM (inactive) | GI50 (K562): > 100 µM (inactive) | GI50 (MCF7): > 100 µM (inactive) | GI50 (OVCAR-5): > 100 µM (inactive) | GI50 (NCI-H23): > 100 µM (inactive) | GI50 (SF-539): > 100 µM (inactive) | GI50 (RPMI-8226): > 100 µM (inactive) | GI50 (SF-295): > 100 µM (inactive) | GI50 (NCI-H460): > 100 µM (inactive) | GI50 (SN12C): > 100 µM (inactive) | GI50 (HL-60): > 100 µM (inactive) | GI50 (UACC-62): > 100 µM (inactive) | GI50 (MDA-MB-435): > 100 µM (inactive) | GI50 (HOP-92): > 100 µM (inactive) | GI50 (SW-620): > 100 µM (inactive) | GI50 (CAKI-1): > 100 µM (inactive) | GI50 (SK-MEL-28): > 100 µM (inactive) | GI50 (NCI-H522): > 100 µM (inactive) | GI50 (SK-MEL-5): > 100 µM (inactive) | GI50 (PC-3): > 100 µM (inactive) | GI50 (KM12): > 100 µM (inactive) | GI50 (SR): 28.7 µM (inactive) | GI50 (UACC-257): > 100 µM (inactive) | GI50 (Hs-578T): > 100 µM (inactive) | GI50 (SK-MEL-2): > 100 µM (inactive) | GI50 (IGROV-1): > 100 µM (inactive) | GI50 (SK-OV-3): > 100 µM (inactive) | GI50 (MOLT-4): 91 µM (inactive) | GI50 (A549): > 100 µM (inactive) | GI50 (CCRF-CEM): > 100 µM (inactive) | GI50 (NCI-H226): > 100 µM (inactive) | GI50 (A498): > 100 µM (inactive) | GI50 (T47D): > 100 µM (inactive) | GI50 (BT-549): > 100 µM (inactive) | GI50 (COLO 205): > 100 µM (inactive) | GI50 (DU-145): > 100 µM (inactive) | GI50 (MDA-N): > 100 µM (inactive) | GI50 (OVCAR-3): > 100 µM (inactive) | GI50 (OVCAR-8): > 100 µM (inactive) | GI50 (ACHN): > 100 µM (inactive) | GI50 (HOP-62): > 100 µM (inactive) | GI50 (HT-29): > 100 µM (inactive)

O=C1c2ccccc2-c2nnc(-c3ccc([N+](=O)[O-])cc3)cc21
GI50 (M14): > 10 µM (inactive) | GI50 (TK-10): > 10 µM (inactive) | GI50 (UO-31): > 10 µM (inactive) | GI50 (MDA-MB-231): > 10 µM (inactive) | GI50 (EKVX): > 10 µM (inactive) | GI50 (RXF 393): > 10 µM (inactive) | GI50 (HCC 2998): > 10 µM (inactive) | GI50 (NCI/ADR-RES): > 10 µM (inactive) | GI50 (HCT-15): > 10 µM | GI50 (LOX IMVI): > 10 µM (inactive) | GI50 (HCT-116): > 10 µM (inactive) | GI50 (SF-268): > 10 µM (inactive) | GI50 (786-0): > 10 µM (inactive) | GI50 (Malme-3M): > 10 µM (inactive) | GI50 (U-251): > 10 µM (inactive) | GI50 (SNB-19): > 10 µM (inactive) | GI50 (OVCAR-4): > 10 µM (inactive) | GI50 (SNB-75): > 10 µM (inactive) | GI50 (K562): > 10 µM (inactive) | GI50 (MCF7): > 10 µM (inactive) | GI50 (OVCAR-5): > 10 µM (inactive) | GI50 (NCI-H23): > 10 µM (inactive) | GI50 (SF-539): > 10 µM (inactive) | GI50 (RPMI-8226): > 10 µM (inactive) | GI50 (SF-295): > 10 µM (inactive) | GI50 (NCI-H460): > 10 µM (inactive) | GI50 (SN12C): > 10 µM (inactive) | GI50 (HL-60): > 10 µM (inactive) | GI50 (UACC-62): > 10 µM (inactive) | GI50 (MDA-MB-435): > 10 µM (inactive) | GI50 (HOP-92): > 10 µM (inactive) | GI50 (SW-620): > 10 µM (inactive) | GI50 (CAKI-1): > 10 µM (inactive) | GI50 (SK-MEL-28): > 10 µM (inactive) | GI50 (NCI-H522): > 10 µM (inactive) | GI50 (SK-MEL-5): > 10 µM (inactive) | GI50 (PC-3): > 10 µM (inactive) | GI50 (KM12): > 10 µM (inactive) | GI50 (SR): > 10 µM (inactive) | GI50 (UACC-257): > 10 µM (inactive) | GI50 (Hs-578T): > 10 µM (inactive) | GI50 (SK-MEL-2): > 10 µM (inactive) | GI50 (IGROV-1): > 10 µM (inactive) | GI50 (SK-OV-3): > 10 µM (inactive) | GI50 (MOLT-4): > 10 µM (inactive) | GI50 (A549): > 10 µM (inactive) | GI50 (CCRF-CEM): > 10 µM (inactive) | GI50 (NCI-H226): > 10 µM (inactive) | GI50 (A498): > 10 µM (inactive) | GI50 (T47D): > 10 µM (inactive) | GI50 (BT-549): > 10 µM (inactive) | GI50 (COLO 205): > 10 µM (inactive) | GI50 (DU-145): > 10 µM (inactive) | GI50 (MDA-N): > 10 µM (inactive) | GI50 (OVCAR-3): > 10 µM (inactive) | GI50 (OVCAR-8): > 10 µM (inactive) | GI50 (ACHN): > 10 µM (inactive) | GI50 (HOP-62): > 10 µM (inactive) | GI50 (HT-29): > 10 µM (inactive)

CC(C)=CCCC1(C)C=Cc2c(ccc3c2[nH]c2cc(O)c(C)cc23)O1 (stereo not given)
GI50 (DMS-114): 7.14 µM (inactive) | GI50 (SNB-78): 13 µM (inactive) | GI50 (OVCAR-4): 7.94 µM (inactive) | GI50 (OVCAR-5): 19.4 µM (inactive) | GI50 (RPMI-8226): 6.59 µM (inactive) | GI50 (OVCAR-3): 4.75 µM (inactive) | GI50 (OVCAR-8): 3.81 µM (inactive)
